Key:
[1] = Breath-freshness self-assessment (three questions) after teeth brushing, home use test; assay type: in vivo, human
Procedure: (§1) Twenty-six participants were pre-screened to ensure that they had no underlying dental problems.
(§2) A repeated measures design, with a randomised repeated trial per product was used. Three toothpastes were prepared with: • Control: peppermint flavour • EC180—150 ppm: peppermint flavour+150 ppm EC180 (concentration in toothpaste) • EC180—250 ppm: peppermint flavour+250 ppm EC180 (concentration in toothpaste)
(§3) Participants were given duplicate tubes of each toothpaste (6 tubes in total). All products were assigned different codes and presented in white tubes to prevent colour as a confounding factor.
(§4) The participants did the test each morning in their homes as per their usual teeth cleaning time (between 7:00 am and 10:00 am) and were asked to refrain from using other oral practices apart from brushing with test product. Testing was done with one product a day with a one-day separation left before testing the next product. A questionnaire was sent to them via an online link for them to complete before teeth cleaning and after teeth cleaning. Responses before teeth cleaning were recorded as their baseline scores.
The data for this test was collected through an online questionnaire set up via SurveyMonkey Audience. The questionnaires on breath-freshness and self-confidence was set up for participants to respond to at the five time-points: (i) pre-brush baseline (ii) 0 minutes immediately post-bush (iii) 30 minutes post-brush (iv) 60 minutes post-brush. A total of 47 datasets per product was input for analysis and 5 incompletes were removed.
Breath freshness was self-evaluated with a set of three questions asking (i) whole mouth clean feel; (ii) natural freshness in mouth; and (lii) cooling sensation in the mouth. […] Breath assessment recorded before teeth brushing was categorized as the baseline measure.
(§5) To evaluate a change effect from the baseline (pre-brush) to the different times post-brush, a mean difference between each time-point to the baseline mean score was calculated to obtain delta values.

[2] = employed in oral care compositions such as mouthwashes or toothpastes; cited from earlier work
[3] = Self-confidence, 9-item subscale of the modified CSAI-2 questionnaire, after teeth brushing, home use test; assay type: in vivo, human
Procedure: Individual's thoughts and feelings in relation to their self-confidence as per their perceived oral health (such as breath) were measured using a 9-item subscale of the modified Competitive State Anxiety Questionnaire (CSAI-2).
The nine items in the Self-confidence scale include five that describe positive expectations (“I feel self-confident”, “I am confident I can meet the challenge”, “I'm confident about performing well”, “I'm confident because I mentally picture myself reaching my goal”, and “I'm confident about coming through under pressure”), and four that describe a generalised feeling of calmness (“I feel calm”, “I feel comfortable”, “I feel secure”, “I feel mentally relaxed”). All items were rated on a 4-point scale anchored by 1 (“Not at all”) and 4 (“Very much so”).
as §1, §2, §3, §4
The questionnaires on breath-freshness and self-confidence was set up for participants to respond to at the five time-points: (i) pre-brush baseline (ii) 0 minutes immediately post-bush (iii) 30 minutes post-brush (iv) 60 minutes post-brush. A total of 47 datasets per product was input for analysis and 5 incompletes were removed.
Self-confidence was measured with the 9-Item subscale of the Modified Competitive State Inventory-2 (CSAI-2). The questionnaire uses a 4-point scale as follows:
1—not at all; 2—somewhat; 3—moderately so; 4—very much so.
as §5

[4] = 60 minutes from brushing with a toothpaste containing EC180

Compound: CC(C)[C@@H]1CC[C@@H](C)C[C@H]1C(=O)Nc1ccc(CC#N)cc1 [EC180, (1R,2S,5R)—N-(4-cyanomethylphenyl)-p-menthane carboxamide]
- level of breath freshness vs flavoured tooth paste alone ([1]; 10 minutes after brushing, in a flavoured tooth-paste, FIG. 1): same level of breath freshness
- breath freshness relative to the initial level [1, 4]: about 60%
- change of breath freshness compared to immediately after brushing (0 min) ([1]; up to 10 minutes after brushing, toothpaste comprising EC180): only minimally increases
- cooling effect [2]: strong and long-lasting cooling effect
- level of self-confidence vs flavoured tooth paste alone ([3]; 10 minutes after brushing, in a flavoured tooth-paste, FIG. 2): significantly increased
- change of level of self-confidence compared to immediately after brushing (0 min) ([3]; 10 minutes after brushing, toothpaste comprising EC180): noticeable increase
- self-confidence compared to the level attained immediately after brushing [3, 4]: more than 80%
- period of time the level of self-confidence remained elevated after teeth brushing ([3]; in a flavoured tooth-paste, effect still observed 60 min after brushing): up to 30 min
